Assay [1] has as its system P. aeruginosa ATCC 27853. The assay is described as follows: Standard EPI assay: MIC of test antibiotic (levofloxacin, cefepime) in absence and presence of EPI. It counts as cell-based, Pseudomonas aeruginosa. The following applies: for Enhanced Activity in P. aeruginosa (fold enhancement of antibiotic activity): levofloxacin as antibiotic, Pseudomonas aeruginosa ATCC 27853. The procedure:
(§1) MIC assays were conducted in accordance with Clinical and Laboratory Standards Institute (CLSI) guidelines for broth microdilution.
(§2) The EPI assay for the purposes of these studies represents a MIC assay in which the MIC of the antibiotic against the bacteria is tested in the presence of an experimental efflux pump inhibitor (EPI). […] Using serial dilutions of the EPI, its enhancement of antibiotic activity was then evaluated. […] For the evaluation of the efficacy of an EPI against bacteria that were pre-exposed to an antibiotic, the inoculum of bacteria that used was developed from a bacterial culture isolated as a single colony following exposure at […] the MIC of the antibiotic (so as to induce efflux pump expression), was to be used in combination with the EPI.
(§3) The MIC of the test antibiotic is determined in the absence and presence of sub-inhibitory concentrations of the EPI. Initially, the sub-inhibitory concentration used was ½×MIC of the EPI. […] Similar methodology was employed to examine the synergy with Escherichia coli ATCC 25922 in the presence of varied concentrations of these EPIs using clarithromycin as the antibiotic.

For assay [2], the system named is Escherichia coli ATC 25922. Briefly: Bacterial EPI assay: MIC of clarithromycin in the presence of EPI. Conditions: clarithromycin as antibiotic. The format is cell-based. As for the experimental part: as §1, §2, §3
The test system of assay [3] is P. aeruginosa ATCC 27853 pre-exposed to cefepime. The assay is described as follows: Pre-exposure bacterial EPI assay. It counts as cell-based, Pseudomonas aeruginosa. The procedure:
as §2
The principle underlying this pre-exposure is that exposure of the bacteria to sub-inhibitory concentrations of the test antibiotic will induce expression of efflux pumps, if any, and may represent the scenario in vivo more accurately.

Assay [4] deals with P. aeruginosa ATCC 27853. The assay is described as follows: Intrinsic MIC assay (CLSI broth microdilution). It counts as cell-based. The following applies: Pseudomonas aeruginosa, ATCC27853, read-out: intrinsic MIC of the EPI. The procedure:
as §1
The intrinsic MIC of the experimental EPIs was tested with the method described. The 2-fold serial dilution begin with 100 μg/mL of tested compound in the first column of the 96-well plates.
The following Gram-negative bacterial strains were included in these assays: • Escherichia coli ATCC 25922 • Klebsiella pneumoniae ATCC 13883 and ATCC 10031 • Pseudomonas aeruginosa ATCC 27853. • Acinetobacter baumannii ATCC 19606 Bacterial EPI Assays Tier 1 Testing

The subject of assay [5] is P. aeruginosa [ATCC 27853]. Briefly: Mouse septicemia model of infection. It counts as in vivo, Pseudomonas aeruginosa. Conditions: mice, Experiment #489, cefepime, 10 mg/ml b.i.d. The procedure:
A general method for the in vivo assessment of bacterial EPIs is complicated by the fact that that both the antibiotic and the EPI need to be present for synergy to be achieved. A general method was discovered that has proven to be effective in establishing the relative efficacy of bacterial EPIs in a mouse septicemia model. The bacterial EPI is administered initially intravenously to mice with septicemia, followed 5 minutes later by the intravenous administration or oral administration of the antibiotic. A second administration of the EPI is then administered subcutaneously after an additional 5 minutes to act as a booster, followed by the final administration of the antibiotic either intravenously or orally after the second administration of the EPI. […] In a few instances, a second regiment of both EPI and antibiotic as administered on day 1 was required after 24 hours to affect cures.
Determination of the in vivo efficacy of bacterial efflux pump inhibitors (EPIs) can be efficiently determined using a mouse septicemia model of infection. The systemic infection is initiated by a 500 ul intraperitoneal injection of an inoculum containing bacteria (such as P. aeruginosa [ATCC 27853]) at a concentration of approximately 5×10^5 cells in 5% mucin in Swiss Webster female mice. […]

The mark [6] stands for this setting: P. aeruginosa ATCC 27853, 6.25 μg/mL of the EPI.

The values below come from patent US11938114B2, “Bacterial efflux pump inhibitors” (priority 2017, dated 2024).

In general, MIC refers to the least concentration at which growth counts as inhibited.

Where a name gives a salt, the structure may show the parent alone. Marks after values point to notes of the source that are not given here.

Turning to `Cl.Cl.NC[C@@H]1CNC(CNC(=O)c2cc(-c3ccc(C(F)(F)F)cc3)cc(-c3ccc(C(F)(F)F)cc3)c2)C1` (stereo in doubt) [Example 9, N-(((2R,4R)-4-(Aminomethyl)pyrrolidin-2-yl)methyl)-4,4″-bis(trifluoromethyl)-[1,1′:3′,1″-terphenyl]-5′-carboxamide hydrochloride salt], the “Enhanced Activity in P. aeruginosa (fold enhancement of antibiotic activity)” value in the assay with P. aeruginosa ATCC 27853 [1] (EPI at 12.5 μg) is 4x/12.5 μg.

With `Cl.Cl.N[C@@H]1CN[C@H](CNC(=O)c2cc(-c3ccc(F)cc3)cc(-c3ccc(F)cc3)c2)C1` [Example 1, N-(((2S, 4S)-4-aminopyrrolidin-2-yl)methyl)-4,4″-difluoro-[1, 1′:3′, 1′-terphenyl]-5′-carboxamide dihydrochloride], the “Enhanced Activity in E. coli (fold enhancement of antibiotic activity)” value in assay [2] (EPI at 6.25 μg) is reported as 64x/6.25 μg. In the assay on P. aeruginosa ATCC 27853 [1] (EPI at 6.25 μg), the “Enhanced Activity in P. aeruginosa (fold enhancement of antibiotic activity)” value was 2x/6.25 μg.

As to `CC(C)(C(=O)NC[C@@H]1C[C@H](N)CN1)c1cc(-c2ccc(F)cc2)cc(-c2ccc(F)cc2)c1.Cl.Cl` [Example 2], the “Enhanced Activity in E. coli (fold enhancement of antibiotic activity)” value in assay [2] (EPI at 6.25 μg) is reported as 8x/6.25 μg.

Turning to `CC(C)(N)C1CN[C@H](CNC(=O)c2cc(-c3ccc(F)cc3)cc(-c3ccc(F)cc3)c2)C1.Cl.Cl` (stereo partly drawn) [Example 3, N-(((2S)-4-(2-aminopropan-2-yl)pyrrolidin-2-yl)methyl)-4,4″-difluoro-[1,1′:3′, 1″-terphenyl]-5′-carboxamide dihydrochloride], in assay [2] (EPI at 12.5 μg), the “Enhanced Activity in E. coli (fold enhancement of antibiotic activity)” value came to 1024x/12.5 μg. For the same molecule, the “Enhanced Activity in P. aeruginosa (fold enhancement of antibiotic activity)” value with P. aeruginosa ATCC 27853 [1] (EPI at 12.5 μg) amounted to 32x/12.5 μg.

In the case of `Cl.Cl.NC[C@@H]1CN[C@H](CNC(=O)c2cc(-c3ccc(F)cc3)cc(-c3ccc(F)cc3)c2)C1` [Example 4, N-(((2S,4R)-4-(aminomethyl)pyrrolidin-2-yl)methyl)-4,4″-difluoro-[1,1′:3′,1″-terphenyl]-5′-carboxamide dihydrochloride], in assay [3] (6.25 μg/mL of the EPI), the “MIC of cefepime against cefepime-exposed P. aeruginosa in the presence of EPI” value was 0.25 µg/mL and the “reduction of MIC of cefepime against cefepime-exposed P. aeruginosa” value worked out at 64 fold. Also, in assay [2] (EPI at 3.125 μg), the “Enhanced Activity in E. coli (fold enhancement of antibiotic activity)” value was determined as 512x/3.125 μg. Also, the MIC with P. aeruginosa ATCC 27853 [4] turned out to be 12.5 µg/mL. For the same molecule, in assay [5] (250 ul + Example 4, 2.0 mg/ml b.i.d.), the “% Survival (72 hr) Antibiotic + EPI” value is listed as 100%. Also, the “MIC of levofloxacin in the presence of EPI” value with P. aeruginosa ATCC 27853 [1] (P. aeruginosa ATCC 27853, 6.25 μg/mL (½×MIC) of the EPI) was 0.016 µg/mL. Further, in the assay with P. aeruginosa ATCC 27853 [1] (setting [6]), the “MIC of cefepime in the presence of EPI” value worked out at 0.125 µg/mL, the “decrease of the MIC of cefepime relative to absence of EPI” value was found to be 16 fold and the “reduction of the MIC of levofloxacin relative to absence of EPI” value was 64 fold. In addition, in the assay on P. aeruginosa ATCC 27853 [1] (EPI at 6.25 μg), the “Enhanced Activity in P. aeruginosa (fold enhancement of antibiotic activity)” value stood at 64x/6.25 μg.

Take `Cl.Cl.NC[C@H]1CN[C@H](CNC(=O)c2cc(-c3ccc(F)cc3)cc(-c3ccc(F)cc3)c2)C1` [Example 5, N-(((2S,4S)-4-(aminomethyl)pyrrolidin-2-yl)methyl)-4,4″-difluoro-[1,1′:3′,1″-terphenyl]-5′-carboxamide dihydrochloride]: in assay [2] (EPI at 6.25 μg), the “Enhanced Activity in E. coli (fold enhancement of antibiotic activity)” value was found to be 1024x/6.25 μg. For the same molecule, the “Enhanced Activity in P. aeruginosa (fold enhancement of antibiotic activity)” value in the assay with P. aeruginosa ATCC 27853 [1] (EPI at 6.25 μg) was 32x/6.25 μg.

In the case of `Cl.Cl.NC[C@@H]1CN[C@H](COc2cc(-c3ccc(F)cc3)cc(-c3ccc(F)cc3)c2)C1` [Example 6, ((3R,5S)-5-(((4,4″-difluoro-[1,1′:3′,1″-terphenyl]-5′-yl)oxy)methyl)pyrrolidin-3-yl)methanamine dihydrochloride], the “Enhanced Activity in E. coli (fold enhancement of antibiotic activity)” value in assay [2] (EPI at 3.125 μg) turned out to be 32x/3.125 μg. Moreover, in the assay with P. aeruginosa ATCC 27853 [1] (EPI at 6.25 μg), the “Enhanced Activity in P. aeruginosa (fold enhancement of antibiotic activity)” value is reported as 1x/6.25 μg.

As for `Cl.Cl.NC[C@H]1CN[C@H](COc2cc(-c3ccc(F)cc3)cc(-c3ccc(F)cc3)c2)C1` [Example 7], the “Enhanced Activity in E. coli (fold enhancement of antibiotic activity)” value in assay [2] (EPI at 3.125 μg) is 64x/3.125 μg. Moreover, the “Enhanced Activity in P. aeruginosa (fold enhancement of antibiotic activity)” value in the assay with P. aeruginosa ATCC 27853 [1] (EPI at 6.25 μg) is 2x/6.25 μg.

As to `NC[C@@H]1C[C@H](Oc2cc(-c3ccc(F)cc3)cc(-c3ccc(F)cc3)c2)CN1` [Example 8, ((2S,4S)-4-((4,4″-difluoro-[1,1′:3′,1″-terphenyl]-5′-yl)oxy)pyrrolidin-2-yl)methanamine], in assay [2] (EPI at 6.25 μg), the “Enhanced Activity in E. coli (fold enhancement of antibiotic activity)” value came out at 2x/6.25 μg. Also, in the assay with P. aeruginosa ATCC 27853 [1] (EPI at 12.5 μg), the “Enhanced Activity in P. aeruginosa (fold enhancement of antibiotic activity)” value stood at 1x/12.5 μg.

For `CC(C)(C(=O)NC[C@@H]1C[C@H](CN)CN1)c1cc(-c2ccc(F)cc2)cc(-c2ccc(F)cc2)c1` [Example 10, N-(((2S,4R)-4-(aminomethyl)pyrrolidin-2-yl)methyl)-2-(4,4″-difluoro-[1,1′:3′,1″-terphenyl]-5′-yl)-2-methylpropanamide hydrochloride salt], the “Enhanced Activity in E. coli (fold enhancement of antibiotic activity)” value in assay [2] (EPI at 6.25 μg) amounted to 512x/6.25 μg.

As to `CN1C[C@H](CN)C[C@H]1CNC(=O)c1cc(-c2ccc(F)cc2)cc(-c2ccc(F)cc2)c1` [Example 11, N-(((2S,4S)-4-(aminomethyl)-1-methylpyrrolidin-2-yl)methyl)-4,4″-difluoro-[1,1′:3′,1″-terphenyl]-5′-carboxamide hydrochloride salt], in assay [2] (EPI at 6.25 μg), the “Enhanced Activity in E. coli (fold enhancement of antibiotic activity)” value is 128x/6.25 μg.

With `CN(C)C[C@H]1CN[C@H](CNC(=O)c2cc(-c3ccc(F)cc3)cc(-c3ccc(F)cc3)c2)C1` [Example 12, N-(((2S,4R)-4-((dimethylamino)methyl)pyrrolidin-2-yl)methyl)-4,4″-difluoro-[1,1′:3′,1″-terphenyl]-5′-carboxamide hydrochloride salt], the “Enhanced Activity in E. coli (fold enhancement of antibiotic activity)” value in assay [2] (EPI at 25 μg) was 2x/25 μg.

For `CNC[C@@H]1CN[C@H](CNC(=O)c2cc(-c3ccc(F)cc3)cc(-c3ccc(F)cc3)c2)C1` [Example 14, 4,4″-difluoro-N-(((2S,4R)-4-((methylamino)methyl)pyrrolidin-2-yl)methyl)-[1,1′:3′,1″-terphenyl]-5′-carboxamide hydrochloride salt], the “Enhanced Activity in E. coli (fold enhancement of antibiotic activity)” value in assay [2] (EPI at 6.25 μg) was determined as 64x/6.25 μg. Also, the “Enhanced Activity in P. aeruginosa (fold enhancement of antibiotic activity)” value with P. aeruginosa ATCC 27853 [1] (EPI at 12.5 μg) is reported as 32x/12.5 μg.

For the molecule `CO/N=C(\C(=O)N[C@@H]1C(=O)N2C(C(=O)[O-])=C(C[N+]3(C)CCCC3)CS[C@H]12)c1csc(N)n1` [cefepime, reference compound], the “increase of MIC of cefepime against pre-exposed versus unexposed P. aeruginosa” value in assay [3] (pre-exposed to cefepime, no EPI) came to 8 fold. The “% Survival (72 hr) Antibiotic Only” value in assay [5] (250 ul) amounted to 0%****.
